Several values for one entry are separate records, joined by “and”; a condition that tells them apart may be missing. Equal values may be shown once.
Assays:
male mice = assay: Behavioural avoidance test, FEU vs. FEU supplemented with peptide (Fig. 8, Supplementary Fig. 4); assay type: in vivo, mouse; details: Fig. 8c, B6 mice
Experimental: These assays were adapted from behavioural procedures described previously[14],[60]. We tested avoidance by giving adult male mice (8–14 week old) of various genotypes a choice to freely investigate two types of chemical stimuli: FEU vs. FEU supplemented with a peptide. Mice were sexually naïve and not exposed to the test stimuli prior to the testing day. Mice were habituated for three days (40 min each day) to clean filter papers (2.5 cm diameter), each deposited in a sterile plastic culture dish and placed in opposite corners of the test cage (30 × 12 cm). After the third habituation period, the test subject was transferred into a new cage containing fresh filter papers/dishes with either of the two test stimuli. One filter paper was impregnated with 45 µl of fresh urine pooled from two sexually naïve female B6 mice (8–16 weeks old) in oestrus (FEU, female oestrous urine) and 5 µl physiological solution containing (in mM): NaCl, 130; KCl, 5; Na-Hepes, 10; CaCl2, 2; glucose, 10; pH = 7.4. For testing the effects of specific peptides, the second filter paper was impregnated with FEU supplemented with a given peptide (100 or 50 µM final concentration, dissolved in physiological solution). Direct physical contact was allowed. Behaviour was recorded for 10 min from the top of the cage. Mice were exposed only once to a given peptide solution, and were exposed to only one peptide stimulus per day. Stimuli were presented in randomised order. […] This investigative behaviour was quantified as the time spent in close contact with each filter paper, scored manually by an observer blind to the experimental conditions using Behavioural Observation Research Interactive Software (BORIS)[85]. Contact time was measured as the time during which the nose crossed the border of a petri dish containing impregnated filter paper. An avoidance index was calculated as (TP — aTU)/(aTP + aTU), with TP as the time an individual mouse investigated a FEU-peptide mixture, aTP as the average time of all tested mice investigating this stimulus and aTU as the average time of all mice investigating FEU without added peptide. Negative values represent avoidance and positive values represent attraction. For analysing investigation of sick conspecifics, B6 mice were injected either with LPS or PBS as described above. In total, 4 h post injection, these mice were anaesthetised with 165 mg/kg ketamine (Pharmacia GmbH, Berlin, Germany) and 11 mg/kg xylazine (Bayer Health Care, Leverkusen, Germany) and then used in behavioural tests.

mouse Fpr3 (Fpr-rs1) = molecular target: T1, mouse Fpr3 (Fpr-rs1) (Mus musculus, UniProt O08790); assay: Heterologous expression / high-throughput Ca2+ imaging agonist screen and sequence selectivity of Fpr3 (Fig. 1a, 2c-e, 2g, 2i); assay type: cell-based; details: mean of n = 3 experiments in triplicate (n = 5 for f-MKKFRW), Fpr3 + Gα16 HEK293T, Fluo-4/AM, FLIPR, buffer C1 pH 7.2, mock 0.059-0.060
T1 construct: expressed in transfected cells; host or cells: HEK293T (DSMZ # ACC-635), transient transfection with jetPEI
T1 sequence (O08790 1-351): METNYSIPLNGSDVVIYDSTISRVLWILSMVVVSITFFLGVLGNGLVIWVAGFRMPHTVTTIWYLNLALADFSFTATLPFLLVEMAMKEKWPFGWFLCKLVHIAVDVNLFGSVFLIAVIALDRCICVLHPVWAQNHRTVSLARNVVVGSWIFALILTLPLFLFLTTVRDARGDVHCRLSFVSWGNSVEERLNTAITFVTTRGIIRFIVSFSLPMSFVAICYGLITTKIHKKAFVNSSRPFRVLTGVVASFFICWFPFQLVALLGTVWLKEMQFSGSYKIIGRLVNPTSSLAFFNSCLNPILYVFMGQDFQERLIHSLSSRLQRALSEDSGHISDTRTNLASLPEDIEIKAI
Experimental: An Fpr3 gene subcloned from genomic DNA of C57BL/6J mice into pcDNA3.1 (Invitrogen) was used in heterologous experiments[21],[80]. HEK293T (DSMZ # ACC-635) cells were seeded at 20–30% confluence on poly-D-lysine-coated (10 µg/ml in PBS) black 96-well µCLEAR-Plates (Greiner Bio-One). Cells were transfected 24 h later using jetPEI™ (Polyplus-transfection SA) according to the manufacturer’s protocol for 96-well transfections. For Ca^2+ imaging experiments, 0.125 µg of DNA plasmid encoding Fpr3 were cotransfected with equal amounts of a plasmid encoding Gα16, a promiscuous G protein α-subunit. Ca^2+ signals to agonist stimulation were recorded 48 h post transfection using the Ca^2+ indicator dye Fluo-4/AM (Molecular Probes) and a fluorescence imaging plate reader (FLIPR) system (Molecular Devices). Cotransfection of a plasmid encoding Gα16 with an empty vector used to subclone Fpr3 gave no agonist-evoked Ca^2+ responses.
We used custom-made peptides with a length of 6–21 amino acids to screen for agonists. Sequences of fMet peptides were designed according to motifs present at the N-termini of 15,125 specific bacterial proteins as annotated in UniProt. Peptides were chemically synthesised, purified, and verified by mass spectroscopy (MALDI-TOF) by commercial suppliers. Purity of all peptides was >95%. Source, sequence and purity of each peptide are listed in Supplementary Data 1. Lyophilised peptides were routinely dissolved in the Ca^2+ imaging assay buffer C1 (130 mM NaCl, 10 mM HEPES, 5 mM KCl, 2 mM CaCl2, 5 mM glucose, pH 7.2) as 0.2–1 mM stock solutions and kept in small aliquots at −20 °C until use. […] The sequences of these peptides exist in proteins from the following bacterial strains[21]: Psychromonas ingrahamii that belongs to a marine ice water microbial community, Desulfotomaculum reducens that is found in deep freshwater lakes, and Pseudomonas grimontii, a plant pathogen. As mice are unlikely to encounter these strains in their natural habitat, these findings are probably not of biological relevance.

[1] = test system: vomeronasal sensory neurons (VSNs); assay: VNO whole-mount en face confocal Ca2+ imaging of VSN dendritic knobs (Fig. 4, 5); assay type: cell-based, mouse; parameters: key to Ca2+ response of f-MKKFRW-responsive VSN knobs / Fpeak: normalised to knob resting fluorescence F0 before stimulation
From the text: Mice (6–20 week old, either sex) were euthanized by CO2 inhalation according to institutional guidelines. After decapitation, the skin was removed from the skull, the mandible was cut off and the cranium was opened by a sagittal cut, 1–2-mm right-lateral in parallel to the midline. The palate and the right incisor were removed and the hemisected skull was mounted in low-melting agarose (4%). The bony capsule of the VNO was opened with fine forceps and the nonsensory epithelium was stripped off. Tissue and cell debris were gently washed off, and the en face preparation was superfused with physiological S1 solution (120 mM NaCl, 25 mM NaHCO3, 5 mM KCl, 1 mM MgSO4, 1 mM CaCl2, 10 mM glucose, 5 mM BES, pH 7.3) saturated with carbogen (95% O2, 5% CO2).
Loading of the VNE with Rhod-2/AM (5–15 µM, 1 h) was performed in S1 solution under carbogen atmosphere at RT. Images were taken with an upright confocal laser scanning microscope (Leica TCS SP5 II, 20x water immersion objective HCX APO L20x/1.0w) equipped with Ar and He/Ne lasers. GFP was excited at 488 nm, Venus at 514 nm and Rhod-2 at 543 nm. Emission was measured at 490–520 nm (GFP), 520–600 nm (Venus) and 560–680 nm (Rhod-2). To minimise interference between Venus and Rhod-2 fluorescence, images were taken sequentially (sample interval per image, 3–4 s). Peptide stimuli were applied to the VNE surface with a local perfusion system which, when positioned close to the anterior end of the VNO, produced a continuous solution stream from rostral to caudal along the VNO axis. Data analysis was performed with the open source software ImageJ (NIH). Ca^2+ responses of individual dendritic knobs were normalised to the knob resting fluorescence level obtained before stimulation (ratio Fx/F0, Fx = actual fluorescence; F0 = mean fluorescence of 3–5 images before ligand application). Mapping was performed by superimposing Ca^2+ peak images onto images showing intrinsic fluorescence for specific markers.
Predator urine mix was composed of urine from mountain lion, coyote, bobcat, fox and marten (at equal volume ratios), purchased from Predatorpee (USA) and Kieferle (Germany). The fMet peptides were as described above. Stimuli were applied in S2 solution (140 mM NaCl, 5 mM KCl, 10 mM HEPES, 1 mM CaCl2, 1 mM MgCl2, 10 mM glucose, pH 7.3 with NaOH).

Substance | Preference Index (male mice; individual values) | Preference Index (male mice; mean, n = 11 f-MKKFRW, 11 MKKFRW, 10 f-MGFFIS, 10 f-MEQQNK, FEU control -0.002) | Ca2+ response, mean (mouse Fpr3 (Fpr-rs1); 3 µM) | Ca2+ response, mean (mouse Fpr3 (Fpr-rs1); 30 µM) | Fpeak ([1]; Fig. 4h, mean of individual knobs, n = 103 f-MKKFRW, 21 f-MKKFRWVVL, 68 MKKFRW, 26 f-MGFFIS, 63 PUM) | Ca2+ responses in VSNs, in words ([1]; VNE of adult B6 mice, f-MKKFRW 1 µM) | Ca2+ response of f-MKKFRW-responsive VSN knobs ([1]; adult B6 mice, mean ± s.d., N = 103 (f-MKKFRW), 21 (f-MKKFRWVVL), 68 (MKKFRW), 26 (f-MGFFIS), 63 (PUM), Fig. 4h)
f-MEQQNK [synthesized fMet peptide] | -0.06064 and -0.05774 and -0.1328 and -0.09632 and 0.7296 and -0.0445 and 0.1064 and -0.1977 and 0.2779 and -0.1553 | 0.0369 | 0.047 ∆F/F | 0.050 ∆F/F |  |  | 
f-MKKFRWVVL [MgrB nonapeptide] |  |  |  |  | 0.64 | VSNs that recognised f-MKKFRW responded also | 0.64 ± 0.45

Source: publication PMC6814738, “Bacterial MgrB peptide activates chemoreceptor Fpr3 in mouse accessory olfactory system and drives avoidance behaviour” (Nature Communications, 2019)
